# Measurements reported in patent US5326566A, “Use of dibutyl adipate and isopropyl myristate in topical and transdermal products” (Bristol-Myers Squibb Company, priority 1993, dated 1994).
# Where two headings read alike, the source gives them in different places.
# Key:
# [1] = literature (Martindale) for dimethyl sulfoxide; cited from earlier work
# [2] = Text: Only skin that appeared normal was used.
# Halobetasol propionate is commercially available by Bristol-Myers Squibb as ULTRAVATE® Cream and ULTRAVATE® Ointment. ULTRAVATE® Cream is an oil-in-water emulsion containing isopropyl palmitate and isopropyl isostearate as emollients. The ULTRAVATE® Ointment is a nonaqueous emulsion of propylene glycol in a petrolatum base.
# In a different human skin study, the in vitro skin penetration of halobetasol propionate from ULTRAVATE® Ointment, FN8-1114-16 cream and FN8-1114-13 cream, was evaluated (see Table 3, Study II). ULTRAVATE® Ointment was used as a control in order to normalize the data, and to assist in the comparison of skin penetration of different formulations when evaluated for skin penetration in different human skin.
# [3] = applied topically; more pronounced in occluded condition; cited from earlier work
# [4] = prior art skin permeation enhancers; cited from earlier work
# [5] = test system: utriculi of rhino mouse skin; test: Rhino mouse utriculi model (efficacy of tretinoin formulations, reduction of utriculi diameter); assay type: in vivo; details: topical, once a day for five days, FIG. 4
# Method: Female rhino mice were obtained from the Skin and Cancer Hospital, Temple University, Philadelphia, Pennsylvania. Upon receipt, the rhino mice were treated with an anti-parasitic agent, trichlorfon (COMBOT®), to rid them of pinworms. It was administered in their drinking water for two weeks. An additional two weeks was allowed to pass without COMBOT® treatment before mice were placed on study. Animals were housed in accordance with the National Institute of Health guidelines and had free access to food and water. At the time of the study initiation, the mice were 9-14 weeks old.
# The mice were individually housed in a plastic shoe box cage with corn cob bedding and placed in rooms illuminated with yellow lights, cycled for 12 hours on and 12 hours off during the study. […]
# The sheets were then evaluated for changes in the sizes of the utriculi as follows: The maximum diameter of 20 representative utriculi per tissue sample were measured, using an IBM PC computer image measurement program (Microscience, Inc., Federal Way, Washington D.C.) and an Olympus microscope (200×magnification). Retinoid effects were evaluated as a percent reduction in uterine diameter by comparing mean diameter of the vehicle treated groups to that of formulation treated groups.
# [6] = Saturation / degree of unsaturation of the oil phase; assay type: physicochemical; details: 0.5 wt % DBA and 10 wt % IPM as solvents in the oil phase
# From the text: A degree of unsaturation of 1.5 means that the amount of DBA, or DBA and IPM, present in the oil phase is one and a half times the amount required to dissolve the halobetasol propionate in the oil phase of the composition so that the final oil phase of the composition is saturated with respect to the halobetasol propionate, plus contains a 50% excess of such solvent(s).
# An unsaturation value of 1.5 means the oil phase of the final composition contains more of the solvent system of the present invention than the minimum required to make such oil phase saturated, saturation of course being relative to the halobetasol propionate. The 1.5 unsaturation value indicates the oil phase of the final composition contains 11/2 times the amount of solvent system required to produce a final composition the oil phase of which is saturated with respect to halobetasol propionate (in other words, the oil phase of the final composition contains a 50% surplus of the solvent system of the invention).
structure (smiles),measurement,setting,value
"CN(C)C=O [Dimethyl formamide, dimethyl formamide]","side effects, in words",[1],cause a sensation of burning and erythema on the skin
"CC(O)CO (stereo not drawn) [PG, propylene glycol]","skin penetration enhancement of halobetasol propionate by solvent/enhancer, in words",[2],does not improve the skin penetration of halobetasol propionate any further
same,"irritation/sensitization, in words",[3],can be a sensitizer and irritant when applied topically
CCCCCCCCCC[S+](C)[O-] (stereo not drawn) [decyl methyl sulfoxide],"skin permeation of oil-soluble drugs, in words",[4],generally do not increase skin permeation of oil-soluble drugs
CCCCOC(=O)CCCCC(=O)OCCCC [dibutyl adipate],efficacy of tretinoin formulations (rank order / activity in words),[5],increases the efficacy and hence the topical bioavailability of tretinoin
C[S+](C)[O-] [dimethyl sulfoxide],"side effects, in words",[1],"causes in animals a foul taste and body odor, burning and erythema on the skin, a reduction in the relucency of the lens cortex and tissue necrosis"
CCC(=O)O[C@]1(C(=O)CCl)[C@@H](C)C[C@H]2[C@@H]3C[C@H](F)C4=CC(=O)C=C[C@]4(C)[C@@]3(F)[C@@H](O)C[C@@]21C [halobetasol propionate],saturated solution of halobetasol propionate in the oil phase,[6],0.05 wt %
CC(C)CCCCCCCCCCCCCCC(=O)OC(C)C [isopropyl isostearate],"skin penetration enhancement of halobetasol propionate by solvent/enhancer, in words",[2],did not enhance the penetration of halobetasol propionate from ULTRAVATE® Cream as compared to ULTRAVATE® Ointment
CCCCCCCCCCCCCCCC(=O)OC(C)C [isopropyl palmitate],"skin penetration enhancement of halobetasol propionate by solvent/enhancer, in words",[2]; conclusions from Study I and Study II,did not enhance the penetration of halobetasol propionate from ULTRAVATE® Cream as compared to ULTRAVATE® Ointment
